Measured values from patent US20230107216A1, “PANTETHEINE DERIVATIVES AND USES THEREOF” (Comet Therapeutics, Inc., priority 2018, published 2023).
Read-outs that look alike come from different tables or passages of the source.

What was measured:
[1] = test system: Propionic Acidemia (PA) primary fibroblasts GM00371; test: Mitochondrial respiration, XFe96 Extracellular Flux Analyzer (OCR/ECAR), PA fibroblasts GM00371; format: cell-based; conditions: Homo sapiens, Fibroblast
[2] = test system: HepG2 cells; test: Glucose uptake (Glucose Uptake-Glo); format: cell-based; conditions: Homo sapiens, read-out: % increase in Glucose Uptake
[3] = test system: Methylmalonic Acidemia (MMA) primary fibroblasts Tsi 5224; test: Mitochondrial respiration, XFe96 Extracellular Flux Analyzer (OCR/ECAR), MMA fibroblasts Tsi 5224; format: cell-based; conditions: Homo sapiens, Fibroblast;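 for Increase in Maximal Respiratory Capacity AUC: relative to vehicle DMSO control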
Summary of the method: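 Primary fibroblasts (20000 cells/well) were held 24 h in supplemented DMEM before Seahorse OCR/ECAR profiling. Compounds at 10 to 50 μM or 0.1% DMSO were injected after baseline, then oligomycin 1 μg/ml, FCCP, and rotenone/antimycin A 0.5 μM. Values were normalized to Hoechst nuclear counts, baselined to pre-compound, and expressed relative to vehicle.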

[4] = test system: monocyte-derived M1 macrophages; test: M1 differentiation assay (macrophage TNFα, IL6, IL10 ELISA, FACS); format: cell-based, human
Summary of the method: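 CD14+ human blood monocytes (100,000) differentiated 6 days with 10 ng/ml GM-CSF plus compound at 10 or 50 μM, refreshed days 2 and 4. Matured 24 h with GM-CSF, IFNγ, LPS plus compound. Supernatant TNFα, IL6, IL10 by ELISA; FACS M1 phenotype CD86+CD68+CD163−.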

[5] = assay condition A (10 mM glucose, 2 mM L-glutamine, 1 mM pyruvate, 10% FBS), read-out: Increase in Spare Capacity AUC
[6] = assay condition D (1 mM glucose, 10% FBS), read-out: Increase in Spare Capacity AUC
[7] = assay condition D (1 mM glucose, 10% FBS), read-out: Increase in Maximal Respiratory Capacity AUC
[8] = assay condition C (10 mM glucose, 10% FBS), read-out: Increase in Maximal Respiratory Capacity AUC
[9] = MMA Tsi 5224, assay condition D (1 mM glucose, 10% FBS), read-out: Increase in Maximal Respiratory Capacity AUC
[10] = MMA Tsi 5224, assay condition A (10 mM glucose, 2 mM L-glutamine, 1 mM pyruvate, 10% FBS), read-out: Increase in Maximal Respiratory Capacity AUC

With `COC(=O)CCC(=O)SCCNC(=O)CCNC(=O)[C@H](OC(=O)CNC(C)=O)C(C)(C)CO` [Compound 1298, methyl 4-[(2-[3-[(2R)-2-[(2-acetamidoacetyl)oxy]-4-hydroxy-3,3-dimethylbutanamido]propanamido]ethyl)sulfanyl]-4-oxobutanoate] the activation at 10 µM [1, 5] was ≥ 30%, the activation at 50 µM [1, 5] was ≥ 50% and the activation at 10 µM [1, 6] was ≥ 30%. For the same molecule, the activation at 50 µM [1, 7] was ≥ 10% and the activation at 50 µM [2] was ≥ 20%.

For `CC(C)(CO)[C@@H](O)C(=O)NCCC(=O)NCCSC(CC(=O)OCC[N+](C)(C)C)C(=O)O` (stereo partly drawn) [Compound 51, [2-([3-carboxy-3-[(2-[3-[(2R)-2,4-dihydroxy-3,3-dimethylbutanamido]propanamido]ethyl)sulfanyl]propanoyl]oxy)ethyl]trimethylazanium], the activation at 50 µM [1, 8] was ≥ 10% and the activation at 10 µM [2] was ≥ 30%.

`CC(C)(CO)[C@@H](O)C(=O)NCCC(=O)NCCSC(=O)CC(=O)CCC(=O)O` [Compound 2, 6-[(2-[3-[(2R)-2,4-dihydroxy-3,3-dimethylbutanamido]propanamido]ethyl)sulfanyl]-4,6-dioxohexanoic acid] was tested, and the activation at 50 µM [1, 7] was ≥ 10% and the activation at 10 µM [2] was ≥ 10%.

In the case of `COC(=O)CCC(=O)SCCNC(=O)CCNC(=O)[C@H](OC(=O)CN)C(C)(C)CO` [Compound 1294, methyl 4-[(2-[3-[(2R)-2-[(2-aminoacetyl)oxy]-4-hydroxy-3,3-dimethylbutanamido]propanamido]ethyl)sulfanyl]-4-oxobutanoate], the activation at 10 µM [1, 6] is reported as ≥ 30% and the activation at 10 µM [2] is reported as ≥ 30%.

With `CC(O)C(C(=O)SCCNC(=O)CCNC(=O)[C@H](O)C(C)(C)CO)C(C)O` (stereo partly drawn) [Compound 1285, (2R)-2,4-dihydroxy-N-[2-[(2-[[3-hydroxy-2-(1-hydroxyethyl)butanoyl]sulfanyl]ethyl)carbamoyl]ethyl]-3,3-dimethylbutanamide] the activation at 50 µM [1, 8] was ≥ 10% and the activation at 10 µM [2] was ≥ 30%.

For `C[C@H](O)CC(=O)CC(=O)SCCNC(=O)CCNC(=O)[C@H](O)C(C)(C)CO` [Compound 1306, (2R)-2,4-dihydroxy-N-[2-[(2-[[(5S)-5-hydroxy-3-oxohexanoyl]sulfanyl]ethyl)carbamoyl]ethyl]-3,3-dimethylbutanamide], the activation at 10 µM [2] was ≥ 30%.

For `COC(=O)CC[C@H](N)C(=O)SCCNC(=O)CCNC(=O)[C@H](O)C(C)(C)CO` [Compound 411], the activation at 10 µM [3, 9] was ≥ 10%, the activation at 10 µM ([3]; MMA Tsi 5224, assay condition D (1 mM glucose, 10% FBS), read-out: Increase in Spare Capacity AUC) was ≥ 10% and the activation at 10 µM [1, 5] was ≥ 30%. For the same molecule, the “% decrease in Live Macrophage Cells” value ([4]; 50 uM) was ≥20% and the inhibition at 10 µM ([4]; Homo sapiens, Macrophage, 10 uM, read-out: % decrease in Macrophage TNFα Secretion) was ≥ 30%.

With `CCC(=O)CC(=O)SCCNC(=O)CCNC(=O)[C@H](O)C(C)(C)CO` [Compound 382, (2R)-2,4-dihydroxy-3,3-dimethyl-N-[2-([2-[(3-oxopentanoyl)sulfanyl]ethyl]carbamoyl)ethyl]butanamide] the activation at 10 µM [3, 10] was ≥ 10%, the activation at 10 µM [1, 7] was ≥ 10% and the activation at 50 µM [2] was ≥ 30%.

`CC(C)(CO)[C@@H](O)C(=O)NCCC(=O)NCCSC(=O)CCC(=O)O` [Compound 1, (R)-4-((2-(3-(2,4-dihydroxy-3,3-dimethylbutanamido)propanamido)ethyl)thio)-4-oxobutanoic acid] was tested, and the activation at 10 µM [3, 10] was ≥ 10%, the activation at 10 µM ([3]; MMA Tsi 5224, assay condition B (1 mM glucose, 2 mM L-glutamine, 1 mM pyruvate, 10% FBS), read-out: Increase in Maximal Respiratory Capacity AUC) was ≥ 10% and the activation at 50 µM [1, 8] was ≥ 10%. The activation at 10 µM [1, 6] was ≥ 10% and the activation at 10 µM [2] was ≥ 30%.

For `CC(=O)SCCNC(=O)CCNC(=O)[C@H](O)C(C)(C)COC(=O)[C@@H](N)Cc1ccc(O)c(O)c1` [Compound 498, (3R)-3-[(2-[[2-(acetylsulfanyl)ethyl]carbamoyl]ethyl)carbamoyl]-3-hydroxy-2,2-dimethylpropyl (2S)-2-amino-3-(3,4-dihydroxyphenyl)propanoate], the activation at 10 µM [1, 7] was ≥ 10% and the activation at 50 µM [2] was ≥ 10%.

In the case of `CC(C)(CO)[C@@H](O)C(=O)NCCC(=O)NCCSC(=O)[C@@H](N)Cc1ccc(O)c(O)c1` [Compound 371, (2R)—N-[2-[(2-[[(2S)-2-amino-3-(3,4-dihydroxyphenyl)propanoyl]sulfanyl]ethyl)carbamoyl]ethyl]-2,4-dihydroxy-3,3-dimethylbutanamide], the activation at 10 µM [2] is reported as ≥ 30%.

`CC(=O)OCC(C)(C)[C@@H](OC(C)=O)C(=O)NCCC(=O)NCCSC(C)=O` [Compound 1264, (1R)-3-(acetyloxy)-1-[(2-[[2-(acetylsulfanyl)ethyl]carbamoyl]ethyl)carbamoyl]-2,2-dimethylpropyl acetate] was tested, and the activation at 50 µM [2] was ≥ 20%.

In the case of `COC(=O)CC(C(C)=O)C(=O)SCCNC(=O)CCNC(=O)[C@H](O)C(C)(C)CO` (stereo partly drawn) [Compound 410], the activation at 10 µM [3, 9] is reported as ≥ 10%, the activation at 50 µM [1, 7] is reported as ≥ 10% and the activation at 50 µM [2] is reported as ≥ 30%.

`CC(C)(CO)[C@@H](O)C(=O)NCCC(=O)NCCSC(=O)CCCO` [Compound 1304, (2R)-2,4-dihydroxy-N-[2-([2-[(4-hydroxybutanoyl)sulfanyl]ethyl]carbamoyl)ethyl]-3,3-dimethylbutanamide] was tested, and the activation at 10 µM [2] was ≥ 20%.

With `CC(C)(CO)[C@@H](O)C(=O)NCCC(=O)NCCSC(=O)CCCN` [Compound 370, (2R)—N-[2-([2-[(4-aminobutanoyl)sulfanyl]ethyl]carbamoyl)ethyl]-2,4-dihydroxy-3,3-dimethylbutanamide] the activation at 10 µM ([1]; assay condition A (10 mM glucose, 2 mM L-glutamine, 1 mM pyruvate, 10% FBS), read-out: Increase in Maximal Respiratory Capacity AUC) was ≥ 10%, the activation at 50 µM [1, 8] was ≥ 10% and the activation at 10 µM [1, 7] was ≥ 10%. The activation at 50 µM [2] was ≥ 30%.
